The values that follow are results of earlier work, collected in patent US10512655B1, “Methods and compositions for the topical treatment of peripheral neuropathy” (Jeffrey S. Brooks, Inc., priority 2013, dated 2019).

The test system of series [1] is patients with type 1 diabetes. Particulars: oral, 300 mg/day over 24 months.
The subject of series [2] is patients suffering from DPN. The settings on record: topical, KY gel non-occlusive vehicle.

Regarding `C/C(=C(\CCOP(=O)(O)O)SC(=O)c1ccccc1)N(C=O)Cc1cnc(C)nc1N` [benfotiamine, Benfotiamine], in series [1], the “effects upon peripheral nerve function or soluble markers of inflammation” value is listed as “no significant effects”.
`CN1CC[C@]23c4c5ccc(O)c4O[C@H]2[C@@H](O)C=C[C@H]3[C@H]1C5` [morphine]: the pain relief result in series [2] is on record as “no pain relief”.
